Laboratory results reported in US20060069132A1, “Azolecarboxamide herbicides” (priority 2004, published 2006).

Tests used:
rice [1] = experiment: Test C flooded paddy test; type: in vivo, Oryza sativa
Summary of the method: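 Plants were grown to the 1- to 4-leaf stage (2–18 cm) and then treated postemergence, or grown to the 2-leaf stage for the flooded paddy test. They were held in a greenhouse for 12 to 14 days and then scored by eye against controls, where 0 is no effect and 100 is complete control.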

goosegrass = experiment: Test C pre-/postemergence herbicide test; type: in vivo, Eleusine indica
Summary of the method: (§1)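 Emerged plants at the 1- to 4-leaf stage (2–18 cm), or freshly planted seeds, received test chemicals in a non-phytotoxic solvent mixture with surfactant. Response was visually scored against controls after 12 to 14 days in the greenhouse, on a 0 (no effect) to 100 (complete control) scale.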

kochia = experiment: Test C pre-/postemergence herbicide test; type: in vivo, Kochia scoparia
Summary of the method: as §1

soybean = experiment: Test C pre-/postemergence herbicide test; type: in vivo, Glycine max
Summary of the method: as §1

pigweed = experiment: Test C pre-/postemergence herbicide test; type: in vivo, Amaranthus retroflexus
Summary of the method: as §1

johnsongrass = experiment: Test C pre-/postemergence herbicide test; type: in vivo, Sorghum halepense
Summary of the method: as §1

large crabgrass = experiment: Test C pre-/postemergence herbicide test; type: in vivo, Digitaria sanguinalis
Summary of the method: as §1

Surinam grass = experiment: Test C pre-/postemergence herbicide test; type: in vivo, Urochloa decumbens
Summary of the method: as §1

velvetleaf = experiment: Test C pre-/postemergence herbicide test; type: in vivo, Abutilon theophrasti
Summary of the method: as §1

rice [2] = experiment: Test B pre-/postemergence herbicide test; type: in vivo, Oryza sativa; details: for Plant response rating, Rice: visual rating
Summary of the method: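 Test chemicals in a non-phytotoxic solvent mixture with surfactant were applied preemergence to seeded species and postemergence to plants 2-18 cm tall (1- to 4-leaf stage); rice and barnyardgrass were also tested in a flooded paddy at the 2-leaf stage. Visual rating versus controls after 13-15 days in greenhouse, scale 0 (no effect) to 100 (complete control).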

[3] = Preemergence, 500 g ai/ha, scale 0 to 100, 0 no effect, 100 complete control
[4] = 125 g ai/ha, scale 0 to 100 (0 no effect, 100 complete control)
[5] = 250 g ai/ha, scale of 0 to 100, 0 is no effect, 100 is complete control
[6] = 500 g ai/ha, visual rating after 12 to 14 days, scale 0 to 100 (0 no effect, 100 complete control)
[7] = 62 g ai/ha, preemergence, scale 0 to 100
[8] = 125 g ai/ha, scale 0 (no effect) to 100 (complete control), visual, 12 to 14 days, preemergence
[9] = 250 g ai/ha, scale 0-100, preemergence
[10] = 500 g ai/ha, scale 0 to 100 (0 no effect, 100 complete control), visual, 12 to 14 days, preemergence
[11] = Postemergence, 500 g ai/ha, scale 0 to 100
[12] = Postemergence, 250 g ai/ha, scale 0 to 100, 0 no effect, 100 complete control
[13] = postemergence, 125 g ai/ha, scale 0 to 100
[14] = postemergence, 62 g ai/ha, scale 0 to 100
[15] = 500 g ai/ha, 0 = no effect, 100 = complete control, preemergence

CCNC(=O)c1ccc(F)c(NC(=O)c2cc(C(C)(C)C)nn2CC)c1 [Compound 2, 3-(1,1-dimethylethyl)-1-ethyl-N-[5-[(ethylamino)carbonyl]-2-fluorophenyl]-1H-pyrazole-5-carboxamide]
plant injury at 62 g/ha (rice [1]; Oryza sativa, 62 g ai/ha, scale 0 to 100 (0 no effect, 100 complete control), read-out: Rice plant response rating): 50% | plant injury at 125 g/ha (rice [1]; Oryza sativa, 125 g ai/ha, scale of 0 to 100, 0 is no effect, 100 is complete control, read-out: Rice plant response rating): 50% | plant injury at 250 g/ha (rice [1]; Oryza sativa, 250 g ai/ha, visual rating after 12 to 14 days, scale 0 to 100 (0 no effect, 100 complete control), read-out: Plant response rating, Rice): 65% | plant injury at 500 g/ha (rice [1]; Oryza sativa, 500 g ai/ha, visual rating after 12 to 14 days, scale 0 to 100 (0 no effect, 100 complete control), read-out: Plant response rating, Rice): 85% | Plant response rating (0 = no effect, 100 = complete control), Goosegrass (goosegrass; 62 g ai/ha, preemergence): 90 | pest or weed control at 125 g/ha (goosegrass; Eleusine indica, pre-emergence, 312 h, 125 g ai/ha, scale 0-100, read-out: Plant response rating, Goosegrass): 95% | pest or weed control at 250 g/ha (goosegrass; Eleusine indica, pre-emergence, 312 h, 250 g ai/ha, scale 0 to 100 (0 no effect, 100 complete control), visual, 12 to 14 days, read-out: Plant response rating, Goosegrass): 95% | Goosegrass plant response rating (goosegrass; [3]): 100 | Plant response rating (0 = no effect, 100 = complete control), Kochia (kochia; 62 g ai/ha, preemergence): 100 | pest or weed control at 125 g/ha (kochia; Bassia scoparia, pre-emergence, 125 g ai/ha, scale 0-100, read-out: Plant response rating, Kochia): 100% | pest or weed control at 250 g/ha (kochia; Bassia scoparia, pre-emergence, 250 g ai/ha, scale 0 to 100 (0 no effect, 100 complete control), visual, 12 to 14 days, read-out: Plant response rating, Kochia): 100% | Kochia plant response rating (kochia; [3]): 100 | Plant response rating (0 = no effect, 100 = complete control), Soybean (soybean; 62 g ai/ha, preemergence): 30 | plant injury at 250 g/ha (soybean; Glycine max, pre-emergence, 250 g ai/ha, scale 0 to 100 (0 no effect, 100 complete control), visual, 12 to 14 days, read-out: Plant response rating, Soybean): 100% | Soybean plant response rating (soybean; [3]): 100 | Plant response rating (0 = no effect, 100 = complete control), Pigweed (pigweed; 62 g ai/ha, preemergence): 95 | pest or weed control at 250 g/ha (pigweed; Amaranthus retroflexus, pre-emergence, 250 g ai/ha, scale 0 to 100 (0 no effect, 100 complete control), visual, 12 to 14 days, read-out: Plant response rating, Pigweed): 95% | Pigweed plant response rating (pigweed; [3]): 100 | Plant response rating (0 = no effect, 100 = complete control), Johnsongrass (johnsongrass; 62 g ai/ha, preemergence): 70 | Johnsongrass plant response rating (johnsongrass; [3]): 100 | pest or weed control at 125 g/ha (johnsongrass; Sorghum halepense, pre-emergence, 125 g ai/ha, scale 0-100, read-out: Plant response rating, Johnsongrass): 90% | pest or weed control at 250 g/ha (johnsongrass; Sorghum halepense, pre-emergence, 250 g ai/ha, scale 0 to 100 (0 no effect, 100 complete control), visual, 12 to 14 days, read-out: Plant response rating, Johnsongrass): 100% | Plant response rating (0 = no effect, 100 = complete control), Crabgrass, Large (large crabgrass; 62 g ai/ha, preemergence): 95 | pest or weed control at 125 g/ha (large crabgrass; Digitaria sanguinalis, pre-emergence, 312 h, 125 g ai/ha, scale 0-100, read-out: Plant response rating, Crabgrass, Large): 95% | pest or weed control at 250 g/ha (large crabgrass; Digitaria sanguinalis, pre-emergence, 312 h, 250 g ai/ha, scale 0 to 100 (0 no effect, 100 complete control), visual, 12 to 14 days, read-out: Plant response rating, Crabgrass, Large): 100% | Crabgrass, Large plant response rating (large crabgrass; [3]): 100 | Plant response rating (0 = no effect, 100 = complete control), Surinam Grass (Surinam grass; 62 g ai/ha, preemergence): 90 | Surinam Grass plant response rating (Surinam grass; [3]): 100 | pest or weed control at 250 g/ha (Surinam grass; Urochloa decumbens, pre-emergence, 312 h, 250 g ai/ha, scale 0 to 100 (0 no effect, 100 complete control), visual, 12 to 14 days, read-out: Plant response rating, Surinam Grass): 100% | Plant response rating (0 = no effect, 100 = complete control), Velvetleaf (velvetleaf; 62 g ai/ha, preemergence): 60 | pest or weed control at 250 g/ha (velvetleaf; Abutilon theophrasti, pre-emergence, 250 g ai/ha, scale 0 to 100 (0 no effect, 100 complete control), visual, 12 to 14 days, read-out: Plant response rating, Velvetleaf): 100% | Velvetleaf plant response rating (velvetleaf; [3]): 100 | Rice plant response rating (rice [2]; Preemergence, 500 g ai/ha, scale 0 to 100): 90

CCn1nc(C(C)(C)C)cc1C(=O)Nc1cccc(OC(F)F)c1 [Compound 332]
Rice plant response rating (rice [1]; 62 g ai/ha, scale 0 to 100): 0 | Rice plant response rating (rice [1]; [4]): 0 | Rice plant response rating (rice [1]; [5]): 45 | Plant response rating, Rice (rice [1]; [6]): 70 | Plant response rating, Goosegrass (goosegrass; [7]): 80 | Plant response rating, Goosegrass (goosegrass; [8]): 85 | Plant response rating, Goosegrass (goosegrass; [9]): 100 | Plant response rating, Goosegrass (goosegrass; [10]): 100 | Goosegrass plant response rating (goosegrass; [11]): 60 | Plant response rating, Goosegrass (goosegrass; [12]): 15 | Plant response rating, Goosegrass (goosegrass; [13]): 15 | Plant response rating, Goosegrass (goosegrass; [14]): 10 | Plant response rating, Kochia (kochia; [7]): 100 | Plant response rating, Kochia (kochia; [8]): 100 | Plant response rating, Kochia (kochia; [9]): 100 | Plant response rating, Kochia (kochia; [10]): 100 | Kochia plant response rating (kochia; [11]): 100 | Plant response rating, Kochia (kochia; [12]): 95 | Plant response rating, Kochia (kochia; [13]): 90 | Plant response rating, Kochia (kochia; [14]): 80 | Plant response rating, Soybean (soybean; [7]): 0 | Plant response rating, Soybean (soybean; [9]): 0 | Plant response rating, Soybean (soybean; [10]): 10 | Soybean plant response rating (soybean; [11]): 90 | Plant response rating, Soybean (soybean; [12]): 60 | Plant response rating, Soybean (soybean; [13]): 50 | Plant response rating, Soybean (soybean; [14]): 45 | Plant response rating, Pigweed (pigweed; [7]): 100 | Plant response rating, Pigweed (pigweed; [8]): 100 | Plant response rating, Pigweed (pigweed; [9]): 100 | Plant response rating, Pigweed (pigweed; [10]): 100 | Pigweed plant response rating (pigweed; [11]): 95 | Plant response rating, Pigweed (pigweed; [12]): 95 | Plant response rating, Pigweed (pigweed; [13]): 90 | Plant response rating, Pigweed (pigweed; [14]): 85 | Plant response rating, Johnsongrass (johnsongrass; [7]): 0 | Plant response rating, Johnsongrass (johnsongrass; [8]): 10 | Plant response rating, Johnsongrass (johnsongrass; [9]): 50 | Plant response rating, Johnsongrass (johnsongrass; [10]): 80 | Johnsongrass plant response rating (johnsongrass; [11]): 5 | Plant response rating, Johnsongrass (johnsongrass; [12]): 5 | Plant response rating, Johnsongrass (johnsongrass; [13]): 5 | Plant response rating, Johnsongrass (johnsongrass; [14]): 0 | Plant response rating, Crabgrass, Large (large crabgrass; [7]): 75 | Plant response rating, Crabgrass, Large (large crabgrass; [8]): 100 | Plant response rating, Crabgrass, Large (large crabgrass; [9]): 100 | Plant response rating, Crabgrass, Large (large crabgrass; [10]): 100 | Crabgrass, Large plant response rating (large crabgrass; [11]): 70 | Plant response rating, Crabgrass, Large (large crabgrass; [12]): 50 | Plant response rating, Crabgrass, Large (large crabgrass; [14]): 30 | Plant response rating, Surinam Grass (Surinam grass; [7]): 5 | Plant response rating, Surinam Grass (Surinam grass; [9]): 10 | Plant response rating, Surinam Grass (Surinam grass; [10]): 15 | Surinam Grass plant response rating (Surinam grass; [11]): 30 | Plant response rating, Surinam Grass (Surinam grass; [12]): 10 | Plant response rating, Surinam Grass (Surinam grass; [13]): 5 | Plant response rating, Surinam Grass (Surinam grass; [14]): 5 | Plant response rating, Velvetleaf (velvetleaf; [7]): 40 | Plant response rating, Velvetleaf (velvetleaf; [9]): 45 | Plant response rating, Velvetleaf (velvetleaf; [10]): 70 | Velvetleaf plant response rating (velvetleaf; [11]): 90 | Plant response rating, Velvetleaf (velvetleaf; [12]): 85 | Plant response rating, Velvetleaf (velvetleaf; [13]): 60 | Plant response rating, Velvetleaf (velvetleaf; [14]): 40 | Plant response rating (0 to 100 scale), Rice (rice [2]; 125 g ai/ha, 0 is no effect, 100 is complete control, preemergence): 20 | Plant response rating, Rice (rice [2]; [15]): 40

CCNC(=O)c1cccc(NC(=O)c2cc(C3(C)CC3)nn2CC)c1 [Compound 306]
Rice plant response rating (rice [1]; 62 g ai/ha, scale 0 to 100): 30 | Rice plant response rating (rice [1]; [4]): 40 | Rice plant response rating (rice [1]; [5]): 55 | Plant response rating, Rice (rice [1]; [6]): 70 | Plant response rating, Goosegrass (goosegrass; [7]): 50 | Plant response rating, Goosegrass (goosegrass; [8]): 70 | Plant response rating, Goosegrass (goosegrass; [9]): 100 | Plant response rating, Goosegrass (goosegrass; [10]): 100 | Plant response rating, Kochia (kochia; [7]): 0 | Plant response rating, Kochia (kochia; [8]): 80 | Plant response rating, Kochia (kochia; [9]): 100 | Plant response rating, Kochia (kochia; [10]): 100 | Plant response rating, Soybean (soybean; [7]): 5 | Plant response rating, Soybean (soybean; [9]): 15 | Plant response rating, Soybean (soybean; [10]): 40 | Plant response rating, Pigweed (pigweed; [7]): 100 | Plant response rating, Pigweed (pigweed; [8]): 100 | Plant response rating, Pigweed (pigweed; [9]): 100 | Plant response rating, Pigweed (pigweed; [10]): 100 | Plant response rating, Johnsongrass (johnsongrass; [7]): 40 | Plant response rating, Johnsongrass (johnsongrass; [8]): 60 | Plant response rating, Johnsongrass (johnsongrass; [9]): 80 | Plant response rating, Crabgrass, Large (large crabgrass; [7]): 100 | Plant response rating, Crabgrass, Large (large crabgrass; [8]): 100 | Plant response rating, Crabgrass, Large (large crabgrass; [9]): 100 | Plant response rating, Crabgrass, Large (large crabgrass; [10]): 100 | Plant response rating, Surinam Grass (Surinam grass; [9]): 40 | Plant response rating, Surinam Grass (Surinam grass; [10]): 95 | Plant response rating, Velvetleaf (velvetleaf; [7]): 5 | Plant response rating, Velvetleaf (velvetleaf; [10]): 10 | Rice plant response rating (0 to 100 scale) (rice [2]; 125 g ai/ha, 0 = no effect, 100 = complete control, preemergence): 60 | Plant response rating, Rice (rice [2]; [15]): 80
